Laboratory results taken from the supplement of paper PMC11451515.

Test system: P12-Ichikawa
Test: cell viability relative to DMSO control; higher = less cytotoxic
Conditions: 48 h
Outline: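 Viability values are per-plate percentages of DMSO wells, with background from cell-free wells. Library compounds in DMSO were pin-dosed, in an 11-point threefold series from 47 μM to 0.79 nM, onto NOMO1 or SEM (500 cells/well) or P12-Ichikawa (1000 cells/well) leukemia cells in 1536-well plates (5 μl). Those cells had been adapted for at least four passages in each medium, and CellTiter-Glo One luminescence was read after 48 h at 37°C.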

[1] = HPLM + 10% dialyzed FBS, 0.000781 µM
[2] = HPLM + 10% dialyzed FBS, 0.00234 µM
[3] = HPLM + 10% dialyzed FBS, 0.00702 µM
[4] = HPLM + 10% dialyzed FBS, 0.0211 µM
[5] = HPLM + 10% dialyzed FBS, 0.0632 µM
[6] = HPLM + 10% dialyzed FBS, 0.19 µM
[7] = HPLM + 10% dialyzed FBS, 0.569 µM
[8] = HPLM + 10% dialyzed FBS, 1.71 µM
[9] = HPLM + 10% dialyzed FBS, 5.12 µM
[10] = HPLM + 10% dialyzed FBS, 15.4 µM
[11] = HPLM + 10% dialyzed FBS, 46.1 µM
[12] = RPMI 5 mM glucose + 10% FBS, 0.000781 µM
[13] = RPMI 5 mM glucose + 10% FBS, 0.00234 µM
[14] = RPMI 5 mM glucose + 10% FBS, 0.00702 µM
[15] = RPMI 5 mM glucose + 10% FBS, 0.0211 µM
[16] = RPMI 5 mM glucose + 10% FBS, 0.0632 µM
[17] = RPMI 5 mM glucose + 10% FBS, 0.19 µM
[18] = RPMI 5 mM glucose + 10% FBS, 0.569 µM
[19] = RPMI 5 mM glucose + 10% FBS, 1.71 µM
[20] = RPMI 5 mM glucose + 10% FBS, 5.12 µM
[21] = RPMI 5 mM glucose + 10% FBS, 15.4 µM
[22] = RPMI 5 mM glucose + 10% FBS, 46.1 µM
[23] = RPMI 5 mM glucose + 10% dialyzed FBS, 0.000781 µM
[24] = RPMI 5 mM glucose + 10% dialyzed FBS, 0.00234 µM
[25] = RPMI 5 mM glucose + 10% dialyzed FBS, 0.00702 µM
[26] = RPMI 5 mM glucose + 10% dialyzed FBS, 0.0211 µM
[27] = RPMI 5 mM glucose + 10% dialyzed FBS, 0.0632 µM
[28] = RPMI 5 mM glucose + 10% dialyzed FBS, 0.19 µM
[29] = RPMI 5 mM glucose + 10% dialyzed FBS, 0.569 µM
[30] = RPMI 5 mM glucose + 10% dialyzed FBS, 1.71 µM
[31] = RPMI 5 mM glucose + 10% dialyzed FBS, 5.12 µM
[32] = RPMI 5 mM glucose + 10% dialyzed FBS, 15.4 µM
[33] = RPMI 5 mM glucose + 10% dialyzed FBS, 46.1 µM

Structure (SMILES)	cell viability [1] [%]	cell viability [2] [%]	cell viability [3] [%]	cell viability [4] [%]	cell viability [5] [%]	cell viability [6] [%]	cell viability [7] [%]	cell viability [8] [%]	cell viability [9] [%]	cell viability [10] [%]	cell viability [11] [%]	cell viability [12] [%]	cell viability [13] [%]	cell viability [14] [%]	cell viability [15] [%]	cell viability [16] [%]	cell viability [17] [%]	cell viability [18] [%]	cell viability [19] [%]	cell viability [20] [%]	cell viability [21] [%]	cell viability [22] [%]	cell viability [23] [%]	cell viability [24] [%]	cell viability [25] [%]	cell viability [26] [%]	cell viability [27] [%]	cell viability [28] [%]	cell viability [29] [%]	cell viability [30] [%]	cell viability [31] [%]	cell viability [32] [%]	cell viability [33] [%]
COc1ccc2c(c1OC)CN1CCc3cc4c(cc3C1C2)OCO4 (centres undefined)	94.5	96.2	101	104	101	99.8	97.2	77	15.9	6.51	6.63	86.1	87	92.7	93.9	94	89	86.7	53.6	17.7	5.68	4.82	84.8	87.7	92.6	94.4	92.5	83.2	83.5	52.9	13.4	7.72	6.88
CC(C)(C)NC(=O)[C@@H]1CN(Cc2cccnc2)CCN1C[C@@H](O)C[C@@H](Cc1ccccc1)C(=O)N[C@H]1c2ccccc2C[C@H]1O.O=S(=O)(O)O	102	114	115	120	122	115	121	114	112	104	72.6	92.1	103	99.2	111	116	116	116	117	109	98	66.1	105	117	119	123	123	119	121	126	111	99.4	59.2
Cc1ccc(-c2ncn(-c3ccc(Nc4nccc(-c5cccc(N6CCOCC6)c5)n4)cc3)n2)cn1	93.9	94.5	94.8	98.2	96.1	90.7	5.93	5.41	5.42	4.29	4.16	92.2	92.8	90.2	89.8	94.5	83.6	3.59	3.74	2.21	3.15	3.43	82.2	87.5	80.8	86.6	87.6	96.3	3.87	3.59	2.81	2.93	2.94
CC(C)NCC(O)c1ccc(NS(C)(=O)=O)cc1 (centres undefined)	104	113	96.3	105	117	111	104	108	98	102	100	109	102	99.9	105	97.9	110	106	112	101	98.7	101	101	102	100	98.6	97	94.3	99.2	91	91	99.2	96.6
CC(C)NCC(O)COc1ccc(CCOCC2CC2)cc1 (centres undefined)	121	118	113	117	113	126	115	113	111	118	120	120	123	118	121	125	121	131	126	118	104	123	121	121	112	116	122	116	110	119	113	107	115
CCCCCCCCCCCCCCCCCCOP(=O)([O-])OC1CC[N+](C)(C)CC1	112	111	114	113	111	109	121	114	106	104	112	104	106	99.9	87	107	111	113	124	103	105	95.3	105	110	126	78.2	111	110	115	121	110	105	113
O=[N+]([O-])c1cnc(Sc2nnc(O)n2-c2ccc3c(c2)OCCO3)s1	87.4	86.1	87.7	91	91.8	93.4	94.2	97	87.8	45.8	2.64	86.5	84.3	88	94.1	87.6	92.5	81.5	90	81.6	3.89	1.48	83.6	78.6	80.5	84.1	87.4	89.2	83.6	79.2	79.3	1.24	0.948
CC1(C)CC(O)CC(C)(C)N1[O]	111	112	119	118	128	121	132	124	120	117	119	110	111	109	110	126	134	125	114	119	119	116	107	122	113	120	125	129	125	134	127	127	126
